Assay results taken from patent US20220257805A1, “PHARMACEUTICAL FORMULATIONS AND METHODS FOR DELIVERING A THERAPEUTIC, DIAGNOSTIC, OR IMAGING AGENT TO CD206” (Syracuse University, priority 2019, published 2022).
“Also recorded” adds a separate entry of the source.

Key:
[1] = tested on: J774A.1 cells; assay: Flow cytometry of uptake in J774A.1 macrophage cells (CUBN-, CD206+), with or without mannan block; assay type: cell-based
Experimental: Adding mannan (2 mg/mL), 45 minutes prior to, and concomitant with IF-B12-Cy5 incubation, reduced IF-B12-Cy5 uptake (FIG. 3) supporting a mannose receptor mediated process.
(§1) Flow cytometry: Flow cytometry analyses were carried out on a Becton Dickinson LSRII Cell Analyzer.
(§2) Cell culture: Cell lines J774A.1 (ATCC TIB-67; CD206 positive), CHO-K1 (ATCC CCL-61; control line) and HepG2 (SIGMA 85011430; ASGPR positive) were obtained from the American Type Culture Collection (ATCC). BN16 cells (cubilin positive) were kindly provided by Prof. Pierre Verroust (INSERM, Paris, France). J774A.1 and BN16 cells were cultured as adherent monolayers in DMEM supplemented with 10% FBS and 1% pen/strep (Penicillin-streptomycin solution with 10,000 units penicillin and 10 mg/mL streptomycin in 0.9% NaCl obtained from Thermo Fisher). CHO-K1 were cultured as adherent monolayers in F12-K supplemented with 10% FBS and 1% pen/strep. Cells were incubated at 37° C. with 5% C02. Hank's balanced salt solution (HBSS) was purchased from Sigma. Charcoal stripped fetal bovine serum (FBS) and were purchased from Sigma.
(§3) Flow cytometry measurements of cellular internalization: Cells were plated on a 6-well plate and allowed to adhere for at least 24 h until at least 80% confluency. […] All cells were excited at 640 nm and detected at 660±20 nm.

[2] = tested on: HepG2 cells; assay: Flow cytometry of uptake in HepG2 cells (ASGPR positive); assay type: cell-based; conditions: 100 nM in HBSS
Experimental: (§4) Cellular association via the typical holo-IF target receptor, CUBN, was conducted in CUBN positive, CD206 negative (see western blot, FIG. 10) BN16 (Brown Norway rat yolk) cells via flow cytometry using fluorescent B12-Cy5 to show functionalization of the IF-B12 complex in vitro (FIG. 3).
as §1
as §2, with “Charcoal stripped fetal bovine serum (FBS) and were purchased from Sigma.” left out
as §3

[3] = tested on: CHO-K1 cells; assay: Flow cytometry of uptake in CHO-K1 cells (CUBN and CD206 free); assay type: cell-based, Chinese hamster; conditions: 100 nM in HBSS
Experimental: as §4, §1
as §2, with “Charcoal stripped fetal bovine serum (FBS) and were purchased from Sigma.” left out
as §3

[4] = tested on: BN16 cells; assay: Flow cytometry of cellular association in BN16 cells (CUBN positive, CD206 negative); assay type: cell-based, Brown Norway rat; conditions: 200 nM, HBSS, 1 h
Experimental: as §4, §1
as §2, with “Charcoal stripped fetal bovine serum (FBS) and were purchased from Sigma.” left out
as §3

[5] = molecular target: T1, human gastric IF (Homo sapiens, UniProt P27352); assay: IF binding affinity, radiometric chase assay using 57Co-B12; conditions: cold tracer
T1 construct: purchased Xeragenx LLC (St. Louis, Mo., USA); host or cells: Arabidopsis thaliana
T1 sequence (P27352 19-417): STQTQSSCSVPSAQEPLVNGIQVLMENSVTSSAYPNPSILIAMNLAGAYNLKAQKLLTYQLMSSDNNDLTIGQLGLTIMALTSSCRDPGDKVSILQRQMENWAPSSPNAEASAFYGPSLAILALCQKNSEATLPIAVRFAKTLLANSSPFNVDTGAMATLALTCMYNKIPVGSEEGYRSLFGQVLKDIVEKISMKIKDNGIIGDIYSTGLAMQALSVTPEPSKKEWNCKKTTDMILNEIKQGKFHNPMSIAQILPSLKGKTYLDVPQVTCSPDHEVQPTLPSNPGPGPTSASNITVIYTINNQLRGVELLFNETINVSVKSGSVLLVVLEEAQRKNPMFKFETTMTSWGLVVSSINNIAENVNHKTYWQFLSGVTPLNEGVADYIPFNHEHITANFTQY
Experimental: To confirm IF binding of ^89Zr-B12, a radiometric chase assay[15] was completed with a ‘cold’ ^91Zr bound to B12 tracer (^91Zr-B12) and compared to free B12, as cyanocobalamin (CN-B12) (FIG. 2). ^91Zr-B12 was made using B12-DFO and chelated to ^91ZrCl4 at pH 7-7.5. IF binding of ^91Zr-B12 was maintained at low nanomolar levels (1.57 nM), similar to CN-B12 control (1.36 nM).
IF binding affinities: To confirm that ^89Zr-B12 will bind to IF, a radiometric chase assay, using ^57Co-B12 was completed (as previously reported)[15] with a cold tracer (^91Zr-B12) and compared to free B12, as cyanocobalamin (CN-B12). Zr-B12 was made using B12-DFO and chelated to ZrCl4 at pH 7.5.

Substance | binding / uptake (flow cytometry) ([1]; 200 nM, HBSS, 1 h, 37° C.) | uptake with mannan block ([1]; mannan 2 mg/mL 45 minutes prior to and concomitant with incubation) | uptake / internalization (flow cytometry) [2] | uptake / internalization (flow cytometry) [3] | cellular association (flow cytometry) at 4° C. ([4]; 4° C.) | cellular association (flow cytometry) ([4]; 37° C.) | Kd [5] [nM]
IF-B12-Cy5: B12-Cy5 bound to recombinant human intrinsic factor (IF-B12 complex) | binding | reduced; also recorded: near complete block in uptake | not internalized | Neither compound was internalized | Reduction in binding (or internalization) | significant association | –
cyanocobalamin [CN-B12] | – | – | – | – | – | – | 1.36
